#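 Tested at 5 concentrations; 48 h exposure; 96-well plates; endpoints linearly interpolated, else capped at highest concentration. Definition used: TGI = concentration required for complete inhibition of growth.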
# Columns and labels:
# Assay in all cases: inhibition of tumour cell growth, NCI panel, 48 h
# MCF7 breast = test system: MCF7 breast
# SR leukemia = test system: SR leukemia
# HOP-62 NSCLC = test system: HOP-62 NSCLC
# UO-31 renal = test system: UO-31 renal
# NCI-H23 lung = test system: NCI-H23 lung
# KM12 colon = test system: KM12 colon
# CCRF-CEM leukemia = test system: CCRF-CEM leukemia
# HL-60(TB) leukemia = test system: HL-60(TB) leukemia
# MDA-MB-231 breast = test system: MDA-MB-231 breast
# NCI-H226 lung = test system: NCI-H226 lung
# NCI-H460 lung = test system: NCI-H460 lung
# HCT-116 colon = test system: HCT-116 colon
# RXF 393 renal = test system: RXF 393 renal
# LOX IMVI melanoma = test system: LOX IMVI melanoma
# SF-539 CNS = test system: SF-539 CNS
# SNB-75 CNS = test system: SNB-75 CNS
# T-47D breast = test system: T-47D breast
# MALME-3M melanoma = test system: MALME-3M melanoma
# LXFL 529 NSCLC = test system: LXFL 529 NSCLC
# COLO 205 colon = test system: COLO 205 colon
# SK-MEL-5 melanoma = test system: SK-MEL-5 melanoma
# OVCAR-4 ovarian = test system: OVCAR-4 ovarian
# K-562 leukemia = test system: K-562 leukemia
# SN12C renal = test system: SN12C renal
# SK-OV-3 ovarian = test system: SK-OV-3 ovarian
# NCI-H522 lung = test system: NCI-H522 lung
# DLD-1 colon = test system: DLD-1 colon
# HCC-2998 colon = test system: HCC-2998 colon
# OVCAR-8 ovarian = test system: OVCAR-8 ovarian
# MOLT-4 leukemia = test system: MOLT-4 leukemia
# HCT-15 colon = test system: HCT-15 colon
# DMS 114 small cell lung = test system: DMS 114 small cell lung
# HOP-18 NSCLC = test system: HOP-18 NSCLC
# HS 578T breast = test system: HS 578T breast
# U251 CNS = test system: U251 CNS
# SK-MEL-2 melanoma = test system: SK-MEL-2 melanoma
# DU-145 prostate = test system: DU-145 prostate
# A549 NSCLC = test system: A549 NSCLC
# UACC-62 melanoma = test system: UACC-62 melanoma
# BT-549 breast = test system: BT-549 breast
# CAKI-1 renal = test system: CAKI-1 renal
# M14 melanoma = test system: M14 melanoma
# SK-MEL-28 melanoma = test system: SK-MEL-28 melanoma
# PC-3 prostate = test system: PC-3 prostate
# OVCAR-3 ovarian = test system: OVCAR-3 ovarian
# NCI/ADR-RES ovarian = test system: NCI/ADR-RES ovarian
# 786-0 renal = test system: 786-0 renal
# SNB-19 CNS = test system: SNB-19 CNS
# ACHN renal = test system: ACHN renal
# KM20L2 colon = test system: KM20L2 colon
# UACC-257 melanoma = test system: UACC-257 melanoma
# SF-295 CNS = test system: SF-295 CNS
# SW-620 colon = test system: SW-620 colon
# SN12K1 renal = test system: SN12K1 renal
# TK-10 renal = test system: TK-10 renal
# RPMI-8226 leukemia = test system: RPMI-8226 leukemia
# XF 498 CNS = test system: XF 498 CNS
# OVCAR-5 ovarian = test system: OVCAR-5 ovarian
# HOP-92 NSCLC = test system: HOP-92 NSCLC
# EKVX NSCLC = test system: EKVX NSCLC
# A498 renal = test system: A498 renal
# SNB-78 CNS = test system: SNB-78 CNS
# DMS 273 small cell lung = test system: DMS 273 small cell lung
# SF-268 CNS = test system: SF-268 CNS
# MDA-MB-435 = test system: MDA-MB-435
# RXF-631 renal = test system: RXF-631 renal
# HT29 colon = test system: HT29 colon
# M19-MEL melanoma = test system: M19-MEL melanoma
# IGROV1 ovarian = test system: IGROV1 ovarian
structure (smiles),measurement,setting,value
C/C(=N\NC(=S)N1CC2CCC(CC2)C1)c1nccs1,TGI,MCF7 breast,14 µM
same,TGI,SR leukemia,6.91 µM
same,TGI,HOP-62 NSCLC,5.66 µM
same,TGI,UO-31 renal,1.52 µM
same,TGI,NCI-H23 lung,13 µM
same,TGI,KM12 colon,17.6 µM
same,TGI,CCRF-CEM leukemia,0.445 µM
same,TGI,HL-60(TB) leukemia,0.0184 µM
same,TGI,MDA-MB-231 breast,19.9 µM
same,TGI,NCI-H226 lung,4.7 µM
same,TGI,NCI-H460 lung,3.67 µM
same,TGI,HCT-116 colon,13.4 µM
same,TGI,RXF 393 renal,5.39 µM
same,TGI,LOX IMVI melanoma,9.09 µM
same,TGI,SF-539 CNS,3.57 µM
same,TGI,SNB-75 CNS,16.2 µM
same,TGI,T-47D breast,14.6 µM
same,TGI,MALME-3M melanoma,13.9 µM
same,TGI,LXFL 529 NSCLC,15.8 µM
same,TGI,COLO 205 colon,16 µM
same,TGI,SK-MEL-5 melanoma,5.24 µM
same,TGI,OVCAR-4 ovarian,17.6 µM
same,TGI,K-562 leukemia,9.9 µM
same,TGI,SN12C renal,12.5 µM
same,TGI,SK-OV-3 ovarian,11.3 µM
same,TGI,NCI-H522 lung,14 µM
same,TGI,DLD-1 colon,17.3 µM
same,TGI,HCC-2998 colon,15.9 µM
same,TGI,OVCAR-8 ovarian,13.1 µM
same,TGI,MOLT-4 leukemia,20.7 µM
same,TGI,HCT-15 colon,20.4 µM
same,TGI,DMS 114 small cell lung,0.218 µM
same,TGI,HOP-18 NSCLC,7.95 µM
same,TGI,HS 578T breast,38.6 µM
same,TGI,U251 CNS,6.43 µM
same,TGI,SK-MEL-2 melanoma,15.7 µM
same,TGI,DU-145 prostate,12.5 µM
same,TGI,A549 NSCLC,8.87 µM
same,TGI,UACC-62 melanoma,0.893 µM
same,TGI,BT-549 breast,20 µM
same,TGI,CAKI-1 renal,14.7 µM
same,TGI,M14 melanoma,1.6 µM
same,TGI,SK-MEL-28 melanoma,19.3 µM
same,TGI,PC-3 prostate,16.6 µM
same,TGI,OVCAR-3 ovarian,19.8 µM
same,TGI,NCI/ADR-RES ovarian,3.9 µM
same,TGI,786-0 renal,7.55 µM
same,TGI,SNB-19 CNS,15.1 µM
same,TGI,ACHN renal,8.99 µM
same,TGI,KM20L2 colon,1.35 µM
same,TGI,UACC-257 melanoma,6.06 µM
same,TGI,SF-295 CNS,7.81 µM
same,TGI,SW-620 colon,18.9 µM
same,TGI,SN12K1 renal,15.2 µM
same,TGI,TK-10 renal,15.9 µM
same,TGI,RPMI-8226 leukemia,20.8 µM
same,TGI,XF 498 CNS,13.8 µM
same,TGI,OVCAR-5 ovarian,15.8 µM
same,TGI,HOP-92 NSCLC,7.21 µM
same,TGI,EKVX NSCLC,11.9 µM
same,TGI,A498 renal,14.3 µM
same,TGI,SNB-78 CNS,41.8 µM
same,TGI,DMS 273 small cell lung,4.93 µM
same,TGI,SF-268 CNS,9.41 µM
same,TGI,MDA-MB-435,12.7 µM
same,TGI,RXF-631 renal,17.6 µM
same,TGI,HT29 colon,15.9 µM
same,TGI,M19-MEL melanoma,1.8 µM
same,TGI,IGROV1 ovarian,15 µM
